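Five compound concentrations were applied to cells in 96-well plates for 48 hours; endpoints were derived by simple linear interpolation of the resulting dose-response curve. GI50 marks 50% less growth.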 Calls of active or inactive are those of the source. No stated cut-off is given here; in the data, active = GI50 up to about 1.1 µM and inactive = higher.

Test systems include CAKI-1; MCF7; EKVX; HOP-62; HOP-92; HCC 2998; NCI-H522; SNB-19; LOX IMVI; COLO 205; SF-295; HL-60; SW-620; RXF 393; OVCAR-4; CCRF-CEM; IGROV-1; HT-29; A549; OVCAR-8.
Holding throughout (assay): NCI anticancer screen, dose series, 48 h

For the compound `c1ccc2c(c1)NCc1cc3ccccc3nc1O2`, the GI50 with CAKI-1 was > 100 µM (inactive); with MCF7, 16 µM (inactive); in the assay on EKVX, > 100 µM (inactive); in the assay on HOP-62 it was > 100 µM (inactive); in the assay on HOP-92, > 100 µM (inactive); in the assay on HCC 2998, > 100 µM (inactive). Besides, the GI50 with NCI-H522 is > 100 µM (inactive); in the assay on SNB-19 it was > 100 µM (inactive); with LOX IMVI, 97.1 µM (inactive); in the assay with COLO 205, > 100 µM (inactive); in the assay with SF-295 it was > 100 µM (inactive); in the assay on HL-60, 55.6 µM (inactive). For the same compound, the GI50 was > 100 µM (inactive) in the assay with SW-620; > 100 µM (inactive) in the assay with RXF 393; > 100 µM (inactive) in the assay on OVCAR-4; > 68.5 µM (inactive) with CCRF-CEM; > 100 µM (inactive) in the assay with IGROV-1; 71.6 µM (inactive) in the assay with HT-29. For the same compound, the GI50 in the assay on A549 and in the assay with OVCAR-8 was > 100 µM (inactive) throughout.

For the compound `CCOC(=O)c1c[nH]c2cc3c(cc2c1=O)CCS3(=O)=O.CCOC(=O)c1c[nH]c2ccc3c(c2c1=O)S(=O)(=O)CC3`, the GI50 with CAKI-1 was > 100 µM (inactive); in the assay on MCF7 it was 83.8 µM (inactive); in the assay with EKVX it was > 100 µM (inactive); in the assay on HOP-62, > 100 µM (inactive); with HOP-92, > 100 µM (inactive); with HCC 2998, > 100 µM (inactive). Further, the GI50 in the assay on NCI-H522, in the assay on SNB-19, in the assay on LOX IMVI, with COLO 205, with SF-295 and with HL-60 was > 100 µM (inactive) throughout. In addition, the GI50 with SW-620, in the assay on RXF 393, in the assay on OVCAR-4, in the assay with CCRF-CEM, in the assay with IGROV-1 and in the assay with HT-29 was > 100 µM (inactive) each time. For the same compound, the GI50 in the assay with A549 and with OVCAR-8 was > 100 µM (inactive) each time.

With `CN(C)C(C1=C(O)C(c2ccccc2)N(c2ccccc2)C1=O)N1CCOCC1` (stereo not given), the GI50 with CAKI-1, in the assay on MCF7, in the assay with EKVX, in the assay with HOP-62, in the assay with HOP-92 and in the assay on HCC 2998 was > 10 µM (inactive) throughout. Further, the GI50 in the assay with NCI-H522, in the assay with SNB-19, with LOX IMVI, in the assay on COLO 205, in the assay with SF-295 and in the assay with HL-60 was > 10 µM (inactive) in each case. The GI50 with SW-620, in the assay with RXF 393, in the assay on OVCAR-4, in the assay on CCRF-CEM, with IGROV-1 and in the assay on HT-29 was > 10 µM (inactive) in each case. For the same compound, the GI50 in the assay with A549 and in the assay with OVCAR-8 was > 10 µM (inactive) in each case.

With `Oc1c(Br)ccc2cccnc12`, the GI50 is 5.94 µM (inactive) in the assay with CAKI-1; 0.443 µM (active) with MCF7; 3.27 µM (inactive) in the assay on EKVX; 12.4 µM (inactive) in the assay on HOP-62; 4.09 µM (inactive) in the assay with HOP-92; 15.1 µM (inactive) in the assay with HCC 2998. Moreover, the GI50 with NCI-H522 was 0.959 µM (active); in the assay with SNB-19, 5.06 µM (inactive); in the assay with LOX IMVI it was 0.895 µM (active); in the assay on COLO 205, 3.04 µM (inactive); in the assay with SF-295, 0.834 µM (active); with HL-60, 0.326 µM (active). For the same compound, the GI50 with SW-620 is 4.81 µM (inactive); with RXF 393 it was 2.88 µM (inactive); with OVCAR-4 it was 2.1 µM (inactive); in the assay with CCRF-CEM, 0.521 µM (active); with IGROV-1, 0.938 µM (active); with HT-29 it was 5.3 µM (inactive). Moreover, the GI50 was 3.14 µM (inactive) with A549 and 2.25 µM (inactive) with OVCAR-8.

(Values after ChEMBL document CHEMBL1201862, “PubChem BioAssay data set” (2004).)
